Laboratory results as given in the NIST ThermoML archive (doi:10.1021/je0501890).
Numbers after ± are expanded uncertainties.

Assay: xn = mol fraction of the nth substance listed
Details: 101.33 kPa, Liquid

ClC(Cl)C(Cl)Cl [1,1,2,2-tetrachloroethane] + CCCCCCCO
Details	mass density, 293.15 K [kg/m3]	mass density, 298.15 K [kg/m3]	mass density, 303.15 K [kg/m3]	viscosity, 293.15 K [mPa·s]	viscosity, 298.15 K [mPa·s]	viscosity, 303.15 K [mPa·s]
x2 = 0.0506	1541.06 ± 1.5	1533.58 ± 1.5	1526.03 ± 1.4	–	–	–
x2 = 0.0997	–	–	–	1.852 ± 0.024	1.69 ± 0.022	1.547 ± 0.021
x2 = 0.1031	1488.84 ± 1.4	1481.6 ± 1.4	1474.35 ± 1.4	–	–	–
x2 = 0.1519	1442.21 ± 1.3	1435.22 ± 1.3	1428.22 ± 1.3	–	–	–
x2 = 0.2003	1397.58 ± 1.2	1390.83 ± 1.2	1384.07 ± 1.2	–	–	–
x2 = 0.2073	–	–	–	2.091 ± 0.028	1.907 ± 0.025	1.71 ± 0.023
x2 = 0.2515	1351.89 ± 1.1	1345.42 ± 1.1	1338.9 ± 1.1	–	–	–
x2 = 0.2998	1310.19 ± 1.1	1303.92 ± 1.1	1297.68 ± 1	–	–	–
x2 = 0.3054	–	–	–	2.417 ± 0.031	2.187 ± 0.029	1.927 ± 0.026
x2 = 0.3445	–	–	–	2.558 ± 0.034	2.272 ± 0.03	2.027 ± 0.027
x2 = 0.3499	1268.42 ± 0.99	1262.39 ± 0.98	1256.35 ± 0.97	–	–	–
x2 = 0.4085	–	–	–	2.833 ± 0.038	2.506 ± 0.033	2.225 ± 0.03
x2 = 0.4109	1219.27 ± 0.92	1213.55 ± 0.91	1207.77 ± 0.9	–	–	–
x2 = 0.4464	1191.47 ± 0.88	1185.87 ± 0.87	1180.31 ± 0.86	–	–	–
x2 = 0.5042	–	–	–	3.341 ± 0.044	2.908 ± 0.039	2.555 ± 0.034
x2 = 0.5113	1142.28 ± 0.82	1136.96 ± 0.81	1131.65 ± 0.8	–	–	–
x2 = 0.5438	–	–	–	3.564 ± 0.047	3.101 ± 0.042	2.715 ± 0.037
x2 = 0.5524	1112.04 ± 0.76	1106.9 ± 0.75	1101.73 ± 0.74	–	–	–
x2 = 0.5988	–	–	–	3.924 ± 0.052	3.392 ± 0.046	2.962 ± 0.04
x2 = 0.6013	1077.03 ± 0.69	1072.05 ± 0.68	1067.13 ± 0.68	–	–	–
x2 = 0.6506	1042.68 ± 0.63	1037.91 ± 0.62	1033.17 ± 0.62	–	–	–
x2 = 0.6937	–	–	–	4.654 ± 0.062	3.992 ± 0.054	3.429 ± 0.047
x2 = 0.6959	1011.91 ± 0.58	1007.34 ± 0.58	1002.73 ± 0.57	–	–	–
x2 = 0.7507	975.7 ± 0.56	971.35 ± 0.56	966.91 ± 0.56	–	–	–
x2 = 0.753	–	–	–	5.166 ± 0.069	4.389 ± 0.06	3.763 ± 0.052
x2 = 0.8001	943.88 ± 0.57	939.68 ± 0.57	935.48 ± 0.57	–	–	–
x2 = 0.8007	–	–	–	5.595 ± 0.074	4.737 ± 0.065	4.035 ± 0.056
x2 = 0.8505	912.27 ± 0.58	908.25 ± 0.58	904.23 ± 0.59	–	–	–
x2 = 0.8971	–	–	–	6.506 ± 0.087	5.365 ± 0.073	4.627 ± 0.063
x2 = 0.8979	883.17 ± 0.6	879.34 ± 0.6	875.45 ± 0.61	–	–	–
x2 = 0.9513	851.1 ± 0.63	847.45 ± 0.64	843.75 ± 0.64	–	–	–

CC(Cl)(Cl)Cl [1,1,1-trichloroethane] + CCCCCCCO
Details	mass density, 293.15 K [kg/m3]	mass density, 298.15 K [kg/m3]	mass density, 303.15 K [kg/m3]	viscosity, 293.15 K [mPa·s]	viscosity, 298.15 K [mPa·s]	viscosity, 303.15 K [mPa·s]
x2 = 0.103	1252.2 ± 0.93	1244.75 ± 0.91	1237.24 ± 0.9	–	–	–
x2 = 0.1048	–	–	–	0.996 ± 0.014	0.914 ± 0.013	0.858 ± 0.012
x2 = 0.1615	1214.95 ± 0.86	1207.9 ± 0.85	1200.8 ± 0.84	–	–	–
x2 = 0.2027	–	–	–	1.224 ± 0.017	1.11 ± 0.015	1.014 ± 0.014
x2 = 0.2047	1188.54 ± 0.82	1181.77 ± 0.81	1174.93 ± 0.8	–	–	–
x2 = 0.2545	1159.2 ± 0.77	1152.74 ± 0.76	1146.2 ± 0.75	–	–	–
x2 = 0.3034	–	–	–	1.529 ± 0.021	1.379 ± 0.019	1.245 ± 0.017
x2 = 0.309	1128.37 ± 0.73	1122.23 ± 0.72	1116.01 ± 0.71	–	–	–
x2 = 0.3514	1105.21 ± 0.7	1099.32 ± 0.69	1093.32 ± 0.68	–	–	–
x2 = 0.3542	–	–	–	1.714 ± 0.023	1.539 ± 0.021	1.388 ± 0.019
x2 = 0.398	–	–	–	1.895 ± 0.025	1.699 ± 0.023	1.526 ± 0.021
x2 = 0.4022	1078.45 ± 0.67	1072.77 ± 0.66	1067.06 ± 0.65	–	–	–
x2 = 0.5016	1028.73 ± 0.62	1023.53 ± 0.61	1018.27 ± 0.6	–	–	–
x2 = 0.503	–	–	–	2.426 ± 0.033	2.14 ± 0.029	1.907 ± 0.026
x2 = 0.5509	1005.32 ± 0.58	1000.35 ± 0.57	995.29 ± 0.57	–	–	–
x2 = 0.5533	–	–	–	2.729 ± 0.036	2.393 ± 0.032	2.127 ± 0.029
x2 = 0.58	991.84 ± 0.57	986.98 ± 0.57	982.04 ± 0.57	–	–	–
x2 = 0.5993	–	–	–	3.043 ± 0.041	2.664 ± 0.036	2.353 ± 0.032
x2 = 0.6573	957.28 ± 0.56	952.71 ± 0.57	948.09 ± 0.57	–	–	–
x2 = 0.6724	950.85 ± 0.56	946.34 ± 0.57	941.77 ± 0.57	–	–	–
x2 = 0.6811	–	–	–	3.69 ± 0.049	3.196 ± 0.043	2.791 ± 0.038
x2 = 0.7416	–	–	–	4.217 ± 0.057	3.629 ± 0.049	3.141 ± 0.043
x2 = 0.7421	921.42 ± 0.58	917.17 ± 0.58	912.86 ± 0.58	–	–	–
x2 = 0.7937	900.46 ± 0.59	896.37 ± 0.59	892.23 ± 0.59	–	–	–
x2 = 0.7956	–	–	–	4.783 ± 0.064	4.09 ± 0.056	3.495 ± 0.048
x2 = 0.8459	879.86 ± 0.6	875.95 ± 0.61	871.97 ± 0.61	–	–	–
x2 = 0.9003	–	–	–	5.912 ± 0.077	5.018 ± 0.068	4.297 ± 0.059
x2 = 0.9027	858.15 ± 0.62	854.41 ± 0.63	850.61 ± 0.63	–	–	–
